Source: ChEMBL document CHEMBL3621192, “Novel anti-HIV-1 NNRTIs based on a pyrazolo[4,3-d]isoxazole backbone scaffold: design, synthesis and insights into the molecular basis of action” (Medchemcomm, 2014)

Experiments:
[1] = Metabolic stability in rat plasma assessed as half life; assay type: ADME, cell-free
[2] = Cytotoxicity against human CEM-SS cells by MTS assay; assay type: cell-based
[3] = Therapeutic index, ratio of CC50 for human CEM-SS cells to EC50 for HIV1 RF infected in CEM-SS cells; assay type: cell-based; conditions: read-out: Ratio CC50/EC50
[4] = molecular target: Human immunodeficiency virus type 1 reverse transcriptase (Human immunodeficiency virus 1, UniProt Q72547); assay: Inhibition of HIV1 recombinant reverse transcriptase assessed as incorporation of [32P]GTP into poly(rC).oligo(dG) template primer
[5] = tested on: Human immunodeficiency virus 1; assay: Antiviral activity against HIV1 3B infected in MT4 cells assessed as inhibition of virus-induced cytopathic effect by MTT assay; assay type: functional, organism-based; conditions: Human immunodeficiency virus 1, 3B
[6] = Cytotoxicity against human MT4 cells by MTT assay; assay type: cell-based
[7] = Therapeutic index, ratio of CC50 for human MT4 cells to EC50 for HIV1 3B infected in MT4 cells; assay type: cell-based; conditions: read-out: Ratio CC50/EC50
[8] = tested on: Human immunodeficiency virus 1; assay: Antiviral activity against HIV1 RF infected in CEM-SS cells assessed as inhibition of virus-induced cytopathic effect by MTS assay; assay type: functional, organism-based; conditions: Human immunodeficiency virus 1, RF

NC(=S)N1Nc2onc(-c3ccccc3)c2C1c1ccc(Cl)cc1 (stereo unspecified)
half-life [1]: 2.2 h | CC50 [2]: 360 nM | selectivity ratio [3]: 462 | IC50 [4]: 0.037 nM | EC50 [5]: 0.28 nM | CC50 [6]: 340 nM | selectivity ratio [7]: 1210 | EC50 [8]: 0.78 nM

Cc1nc(N2Nc3onc(-c4ccccc4)c3C2c2ccc(Cl)cc2)sc1/N=N/c1ccccc1 (stereo unspecified)
half-life [1]: 4.42 h | CC50 [2]: 450 nM | selectivity ratio [3]: 833 | IC50 [4]: 0.019 nM | EC50 [5]: 0.3 nM | CC50 [6]: 260 nM | selectivity ratio [7]: 867 | EC50 [8]: 0.54 nM

Cc1ccc(/N=N/c2sc(N3Nc4onc(-c5ccccc5)c4C3c3ccc(Cl)cc3)nc2C)cc1 (stereo unspecified)
half-life [1]: 5.72 h | CC50 [2]: 250 nM | selectivity ratio [3]: 1000 | IC50 [4]: 0.027 nM | EC50 [5]: 0.55 nM | CC50 [6]: 450 nM | selectivity ratio [7]: 818 | EC50 [8]: 0.25 nM

Cc1nc(N2Nc3onc(-c4ccccc4)c3C2c2ccc(Cl)cc2)sc1/N=N/c1ccc(Cl)cc1 (stereo unspecified)
half-life [1]: 7.57 h | CC50 [2]: 330 nM | selectivity ratio [3]: 917 | IC50 [4]: 0.035 nM | EC50 [5]: 0.46 nM | CC50 [6]: 340 nM | selectivity ratio [7]: 739 | EC50 [8]: 0.36 nM

Cc1nc(N2Nc3onc(-c4ccccc4)c3C2c2ccc(Cl)cc2)sc1/N=N/c1ccc(Br)cc1 (stereo unspecified)
half-life [1]: 4.07 h | CC50 [2]: 140 nM | selectivity ratio [3]: 412 | IC50 [4]: 0.016 nM | EC50 [5]: 0.27 nM | CC50 [6]: 390 nM | selectivity ratio [7]: 1440 | EC50 [8]: 0.34 nM

COc1ccc(/N=N/c2sc(N3Nc4onc(-c5ccccc5)c4C3c3ccc(Cl)cc3)nc2C)cc1 (stereo unspecified)
half-life [1]: 3.9 h | CC50 [2]: 340 nM | selectivity ratio [3]: 971 | IC50 [4]: 0.036 nM | EC50 [5]: 0.44 nM | CC50 [6]: 460 nM | selectivity ratio [7]: 1050 | EC50 [8]: 0.35 nM

Cc1nc(N2Nc3onc(-c4ccccc4)c3C2c2ccc(Cl)cc2)sc1/N=N/c1ccc([N+](=O)[O-])cc1 (stereo unspecified)
half-life [1]: 6.08 h | CC50 [2]: 250 nM | selectivity ratio [3]: 1000 | IC50 [4]: 0.027 nM | EC50 [5]: 0.18 nM | CC50 [6]: 280 nM | selectivity ratio [7]: 1560 | EC50 [8]: 0.25 nM

Cc1csc(N2Nc3onc(-c4ccccc4)c3C2c2ccc(Cl)cc2)n1 (stereo unspecified)
half-life [1]: 5.72 h | CC50 [2]: 440 nM | selectivity ratio [3]: 936 | IC50 [4]: 0.046 nM | EC50 [5]: 0.35 nM | CC50 [6]: 230 nM | selectivity ratio [7]: 657 | EC50 [8]: 0.47 nM

N/N=C(\N)N1Nc2onc(-c3ccccc3)c2C1c1ccc(Cl)cc1 (stereo unspecified)
half-life [1]: 4.57 h | CC50 [2]: 340 nM | selectivity ratio [3]: 739 | IC50 [4]: 0.018 nM | EC50 [5]: 0.29 nM | CC50 [6]: 170 nM | selectivity ratio [7]: 586 | EC50 [8]: 0.46 nM

CC1=C(/N=N/c2ccccc2)N=C(N2Nc3onc(-c4ccccc4)c3C2c2ccc(Cl)cc2)NN1 (stereo unspecified)
half-life [1]: 2.05 h | CC50 [2]: 230 nM | selectivity ratio [3]: 523 | IC50 [4]: 0.045 nM | EC50 [5]: 0.33 nM | CC50 [6]: 450 nM | selectivity ratio [7]: 1360 | EC50 [8]: 0.44 nM

CC1=C(/N=N/c2ccc(C)cc2)N=C(N2Nc3onc(-c4ccccc4)c3C2c2ccc(Cl)cc2)NN1 (stereo unspecified)
half-life [1]: 2.57 h | CC50 [2]: 360 nM | selectivity ratio [3]: 837 | IC50 [4]: 0.019 nM | EC50 [5]: 0.49 nM | CC50 [6]: 330 nM | selectivity ratio [7]: 673 | EC50 [8]: 0.43 nM

CC1=C(/N=N/c2ccc(Cl)cc2)N=C(N2Nc3onc(-c4ccccc4)c3C2c2ccc(Cl)cc2)NN1 (stereo unspecified)
half-life [1]: 4.05 h | CC50 [2]: 270 nM | selectivity ratio [3]: 403 | IC50 [4]: 0.028 nM | EC50 [5]: 0.37 nM | CC50 [6]: 450 nM | selectivity ratio [7]: 1220 | EC50 [8]: 0.67 nM

O=C1Nc2ccc(Cl)cc2[C@@](C#CC2CC2)(C(F)(F)F)O1 [EFAVIRENZ]
half-life [1]: 1.48 h | CC50 [2]: 550 nM | EC50 [5]: 0.98 nM | CC50 [6]: 320 nM | EC50 [8]: 0.92 nM
